In general, inhibition refers to the change of the read-out against control, counted positive when it falls.

For 30 molecules, inhibition results are on record in ChEMBL document CHEMBL3301458, “MMV Malaria Box hERG screening”.

Data set [1] deals with T1, hERG (Kv11.1, KCNH2) (Homo sapiens, UniProt Q12809). As to the kind of experiment: in vitro.
Description: MMV: Malaria Box compounds were tested for inhibition of the human ether a go-go related gene (hERG), Kv11.1 channel, using IonWorks 384-well patch clamp electrophysiology at 11.1uM (3 independent assay plates up to 12 cells per concentration).
Data set [2] has as its target T1, hERG (Kv11.1, KCNH2). As to the kind of experiment: in vitro. The source holds these as a separate data set.
Description: MMV: Malaria Box compounds were tested for inhibition of the human ether a go-go related gene (hERG), Kv11.1 channel, using IonWorks 384-well patch clamp electrophysiology at 1.1uM (3 independent assay plates up to 12 cells per concentration).

Activity calls are given as the source filed them. No rule for the calls is given here.

T1 sequence (Q12809 whole entry): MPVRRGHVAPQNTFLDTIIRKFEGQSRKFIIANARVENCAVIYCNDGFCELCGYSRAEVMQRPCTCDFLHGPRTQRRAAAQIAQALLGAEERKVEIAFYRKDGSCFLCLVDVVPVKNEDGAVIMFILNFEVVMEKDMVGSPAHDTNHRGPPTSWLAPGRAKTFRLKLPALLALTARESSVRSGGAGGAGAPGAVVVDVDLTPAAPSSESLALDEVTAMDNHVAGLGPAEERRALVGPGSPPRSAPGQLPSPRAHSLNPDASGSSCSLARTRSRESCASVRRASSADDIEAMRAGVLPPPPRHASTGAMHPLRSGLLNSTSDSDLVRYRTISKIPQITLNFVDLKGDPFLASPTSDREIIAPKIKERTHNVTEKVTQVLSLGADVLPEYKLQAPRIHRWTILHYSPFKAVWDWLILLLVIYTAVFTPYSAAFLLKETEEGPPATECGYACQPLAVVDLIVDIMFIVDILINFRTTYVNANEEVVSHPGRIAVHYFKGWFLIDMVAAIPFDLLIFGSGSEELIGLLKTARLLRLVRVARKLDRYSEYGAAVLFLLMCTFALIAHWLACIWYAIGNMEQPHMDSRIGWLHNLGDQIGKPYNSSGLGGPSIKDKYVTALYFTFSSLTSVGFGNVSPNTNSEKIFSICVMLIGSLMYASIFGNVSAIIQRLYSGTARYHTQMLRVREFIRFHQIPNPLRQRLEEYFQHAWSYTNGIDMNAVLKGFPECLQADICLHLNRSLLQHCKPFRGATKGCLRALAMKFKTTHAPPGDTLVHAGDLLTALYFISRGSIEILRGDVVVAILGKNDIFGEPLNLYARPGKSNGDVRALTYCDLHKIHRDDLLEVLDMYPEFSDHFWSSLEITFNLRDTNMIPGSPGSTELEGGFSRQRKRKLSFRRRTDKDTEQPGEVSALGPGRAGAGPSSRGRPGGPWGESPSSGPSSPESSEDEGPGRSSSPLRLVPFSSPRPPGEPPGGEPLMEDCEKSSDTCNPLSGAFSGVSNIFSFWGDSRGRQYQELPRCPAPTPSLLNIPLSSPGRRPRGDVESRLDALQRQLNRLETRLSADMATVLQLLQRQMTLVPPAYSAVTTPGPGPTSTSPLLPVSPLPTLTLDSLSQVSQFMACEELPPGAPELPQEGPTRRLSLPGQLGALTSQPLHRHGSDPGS

Take `Cc1cc(C)cc(Nc2cc(C)nc3nc(C(F)(F)F)nn23)c1`: the inhibition at 11.1 µM in data set [1] came out at 40%. Besides, the inhibition at 1.1 µM in data set [2] stood at 20%.
With `O=C(CCc1ccccc1)c1ccccc1OCC(O)CN1CCCCC1` (stereo not given), the inhibition at 11.1 µM in data set [1] was 17% (inactive). In addition, the inhibition at 1.1 µM in data set [2] came out at 1%.
For `Cc1cc(Nc2ccc3ccccc3c2)n2ncnc2n1`, in that order: 25% (inactive) and 9%.
Turning to `COc1ccc(-n2ccnc2SCC(=O)Nc2cc(C)ccc2C)c(OC)c1`, the inhibition at 11.1 µM in data set [1] turned out to be 29%. Moreover, the inhibition at 1.1 µM in data set [2] is 5%.
On to `COc1cccc(Nc2nc(NCCO)c3ccccc3n2)c1`, for which the inhibition at 11.1 µM in data set [1] was 57% (active). For the same molecule, the inhibition at 1.1 µM in data set [2] was 18%.
In the same order, the values of `O=C(O)C1Cc2c([nH]c3ccccc23)C(c2ccc(Cl)cc2Cl)N1` (stereo not given) are 34% and -5%.
Consider `COc1ccc(C(=O)Nc2ccc3nc(N4CCCCC4)cc(C)c3c2)cc1OC`, for which, in data set [1], the inhibition at 11.1 µM amounted to 96%. Also, the inhibition at 1.1 µM in data set [2] was 63%.
As for `COCCNCC(O)Cn1c2ccc(Cl)cc2c2cc(Cl)ccc21` (stereo not given), the inhibition at 11.1 µM in data set [1] is 83% (active). The inhibition at 1.1 µM in data set [2] was found to be 14%.
For `COc1ccc(N2CCN(C(CNC(=O)C3CCCCC3)c3ccc4c(c3)OCO4)CC2)cc1` (stereo not given), in that order: 51% (active) and 17%.
For `O=C(NC1CCN(Cc2ccccc2)CC1)c1cc(-c2ccncc2)nc2ccc(Cl)cc12`, in that order: 72% (active) and 14%.
Take `COc1cccc(Nc2nc(N)c3ccccc3n2)c1`: the inhibition at 11.1 µM in data set [1] is 9% (inactive). For the same molecule, in data set [2], the inhibition at 1.1 µM came to 10%.
For `COc1ccc2nc(C)cc(Nc3cccc(O)c3)c2c1`, in that order: 83% (active) and 32%.
In the case of `COC(=O)c1ccc(C2C3=C(O)CC(c4ccc(F)cc4)CC3=Nc3ccccc3N2C(=O)c2ccccc2)cc1` (stereo not given), the inhibition at 11.1 µM in data set [1] worked out at 105%. Moreover, the inhibition at 1.1 µM in data set [2] stood at 98%.
In the same order, the values of `Cn1c(=O)c2cc(C(=O)NCCCN3CCCCCC3)sc2c2ccccc21` are 6% (inactive) and -5%.
In the same order, the values of `Cc1[nH]c(-c2ccc(F)cc2)cc1C(=O)NC1CCN(Cc2ccccc2)CC1` are 96% and 55%.
For `Cc1sc2ncnc(Sc3nc4ccccc4[nH]3)c2c1C`, in that order: 16% (inactive) and 8%.
For the molecule `CCOc1cc2c(cc1OCC)C(c1cc(OC)c(O)cc1Cl)NCC2` (stereo not given), the inhibition at 11.1 µM in data set [1] was determined as 30%. Besides, in data set [2], the inhibition at 1.1 µM turned out to be 10%.
`Oc1ccccc1CN1CCN(C(c2ccccc2)c2ccccc2)CC1`: the inhibition at 11.1 µM in data set [1] was 12% (inactive). Also, the inhibition at 1.1 µM in data set [2] was 13%.
In the same order, the values of `c1ccc2c(NCCCCCCNc3c4c(nc5ccccc35)CCCC4)c3c(nc2c1)CCCC3` are 102% (active) and 36%.
In the same order, the values of `CCC1(C)CC(CCNCc2ccccc2O)(c2ccc(C)cc2)CCO1` (stereo not given) are 73% (active) and 2%.
Regarding `OC(CNC1CCCCC1)Cn1c2ccccc2c2ccccc21` (stereo not given), the inhibition at 11.1 µM in data set [1] was 23% (inactive). Moreover, the inhibition at 1.1 µM in data set [2] was 14%.
Consider `O=C(NCCCN1CCC(N2CCCCC2)CC1)C1=Cc2cc(Br)ccc2OC1`, for which the inhibition at 11.1 µM in data set [1] was 89% (active). Further, the inhibition at 1.1 µM in data set [2] was determined as 5%.
For `O=C(NC1CCN(Cc2ccccc2)CC1)c1cc(C(=O)NC2CCN(Cc3ccccc3)CC2)cc(C(=O)NC2CCN(Cc3ccccc3)CC2)c1`, in that order: 39% and -2%.
As for `CCN1CCN(c2cc(C)c3cc(NC(=O)c4ccc(OC)c(OC)c4)ccc3n2)CC1`, the inhibition at 11.1 µM in data set [1] is 63% (active). Besides, the inhibition at 1.1 µM in data set [2] was determined as 15%.
For `Fc1ccc2[nH]c3c(NCCCN4CCOCC4)ncnc3c2c1`, the inhibition at 11.1 µM in data set [1] is 77% (active). In data set [2], the inhibition at 1.1 µM was found to be 24%.
Consider `Cc1ccc(Cl)cc1N1CCN(CCCNC(=O)C2CCN(c3nc4ccccc4[nH]3)CC2)CC1`, for which, in data set [1], the inhibition at 11.1 µM was 99%. In addition, the inhibition at 1.1 µM in data set [2] is 54%.
In the case of `COc1ccc(C(=O)Nc2nonc2-c2ccc(OC)c(OC)c2)cc1Cl`, the inhibition at 11.1 µM in data set [1] was 9% (inactive). Also, the inhibition at 1.1 µM in data set [2] amounted to 7%.
Regarding `Oc1ccc2ccccc2c1CNc1nc2ccccc2[nH]1`, the inhibition at 11.1 µM in data set [1] was 21% (inactive). The inhibition at 1.1 µM in data set [2] is -5%.
In the same order, the values of `COc1ccc(C2NCCc3c2[nH]c2ccccc32)cc1CN1CCN(c2ccc(F)cc2)CC1` (stereo not given) are 113% (active) and 18%.
As for `Cc1cccc(Nc2nc(N)c3ccccc3n2)c1`, the inhibition at 11.1 µM in data set [1] was 49%. Besides, the inhibition at 1.1 µM in data set [2] was determined as 15%.
